Experimental data published in patent US20140038896A1, “Retroelements and mental disorders and methods of measuring L1 retrotransposition” (Salk Institute for Biological Studies, priority 2009, published 2014).

Tests used:
[1] = test system: endogenous rat L1 promoter region (5′UTR); test: ChIP of MeCP2 and Sox2 on the endogenous rat L1 promoter region in NSCs; assay type: cell-based; conditions: for MeCP2 ChIP signal / association to the L1 promoter region: 500 ng/ml for 4 days
Excerpt: ChIP assay was done essentially following the manufacturer's protocol using a ChIP assay kit (Upstate). Antibodies used were anti-MeCP2 (Upstate), Sox2 (Chemicon), and IgG. Purified DNA was amplified by PCR using primers for the rat L1 5′UTR promoter region (L1.3, accession # X03095).
(§1) Using chromatin immunoprecipitation (ChIP), high levels of MeCP2 were detected in association with the L1 promoter region (i.e., 5′UTR) in rat NSCs compared to differentiated neurons (FIG. 1F). To rule out differences in protein abundance that may differently influence ChIP amplification, western blot analysis was performed using lysates from cells that had undergone neuronal differentiation. […] Next, it was asked if releasing of MeCP2 from the methylated DNA would increase its association with Sox2 in solution. The Co-IP experiment in the presence of the 5-Aza was then repeated. […] It may be that both configurations can occur on the same L1 promoter region or each possibility is a L1 element sequence-dependent event.

L1 5′UTR CpG islands = test: Bisulfite analysis of L1 5′UTR DNA methylation in NSCs; assay type: cell-based, rat; conditions: treatment for 4-days
Experimental: Genomic DNA from NSCs was isolated using standard phenol-chloroform extraction techniques. Subsequently, DNA was digested with the restriction enzyme EcoRI and the bisulfite conversion reaction was performed using the Epitect kit (Quiagen), following manufacturer's instructions. Primers were designed based on the rat L1 sequence Mlvi2, using Methyl Primer Express; primers for L1 converted 5′UTR region: forward 5-[…]-3′ (SEQ ID NO:1) and reverse 5′-[…]-3′ (SEQ ID NO:2). PCR products were cloned into TOPO TA 2.1 plasmids (Invitrogen) and 40 bacterial colonies were analyzed by sequencing.

MeCP2 and Sox2 = test: Co-immunoprecipitation between MeCP2 and Sox2; assay type: cell-based, rat; conditions: in the presence of 5-Aza
Experimental: Immunofluorescence for EGFP was performed as previously described (11). A non-transgenic animal was used to measure the background fluorescence in the brain and to establish a threshold for detection. Western blotting was carried out using standard protocols with the following antibodies: mouse anti-Actin (1/500, Ambion), rabbit anti-MeCP2 (1/1000, Imgenex or Upstate), and rabbit anti-Sox2 (1/100, Chemicon). All secondary antibodies were purchased from Jackson ImmunoResearch. For co-immunoprecipitation, the Nuclear Complex Co-IP kit (Active Motif) was used, following the manufacturer's protocol with the highest stringency buffers.
as §1

SMILES: Nc1ncn([C@@H]2O[C@H](CO)[C@@H](O)[C@H]2O)c(=O)n1 [5-Azacytidine]
- MeCP2 ChIP signal / association to the L1 promoter region [1]: lost
- MeCP2 ChIP signal / association to the L1 promoter region ([1]; listed as 5-Azacitidine): reduced
- Sox2 binding to the L1 promoter ([1]; 5-Aza treatment): did riot prevent
- removal of methyl radicals from the 5′UTR L1 region (bisulfite) (L1 5′UTR CpG islands): completely removed
- amount of MeCP2 in association with Sox2 in solution (Co-IP) (MeCP2 and Sox2): increased
